Where two headings read alike, the source gives them in different places.
Assays:
[1] = aqueous kinetic solubility
[2] = rat microsomal stability (RLM)
recombinant human GALK1 = recombinant human GALK1 (Homo sapiens, UniProt P51570); test: hGALK1 biochemical activity assay (Kinase-Glo Plus, ATP depletion)
In short: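 Turnover is measured as ATP depletion by Kinase-Glo Plus luminescence after a 1 h room-temperature reaction. Compounds span 11 concentrations, 57.4 μM–0.97 nM, in final 20 mM HEPES pH 8.0 with 5 mM MgCl2. The substrate solution held 35 μM ATP; the added solution held 5 nM human or mouse GALK1 and 100 μM galactose.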

recombinant mouse GALK1 = recombinant mouse GALK1 (Mus musculus, UniProt Q9R0N0); test: mGALK1 biochemical activity assay (Kinase-Glo Plus, ATP depletion)
In short: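 Recombinant GALK1 (5 nM) with 100 μM galactose; GALK1 turnover read as ATP depletion by Kinase-Glo Plus luminescence. Reaction ran 1 h at room temperature before detection reagent was added.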

[3] = microsomal stability half-life, minutes
[4] = recombinant human GALK1, Kinase-Glo Plus ATP depletion, bracketed figure in the cell, e.g. (−1.2), is not defined in the text shown, read-out: hGALK
[5] = recombinant mouse GALK1, Kinase-Glo Plus ATP depletion, bracketed figure in the cell, e.g. (−1.2), is not defined in the text shown, read-out: mGALK
[6] = Tables 2-15, 35 μM ATP, 100 μM galactose, 1 h, bracketed figure after some values (e.g. −1.2) is undefined and not reported, read-out: hGALK IC50
[7] = recombinant human GALK1, Kinase-Glo Plus ATP depletion, read-out: hGALK
[8] = Tables 2-15, 35 μM ATP, 100 μM galactose, 1 h, bracketed figure after some values is undefined and not reported, read-out: mGALK IC50
[9] = recombinant mouse GALK1, Kinase-Glo Plus ATP depletion, read-out: mGALK

recombinant human GALK1, sequence (P51570 whole entry): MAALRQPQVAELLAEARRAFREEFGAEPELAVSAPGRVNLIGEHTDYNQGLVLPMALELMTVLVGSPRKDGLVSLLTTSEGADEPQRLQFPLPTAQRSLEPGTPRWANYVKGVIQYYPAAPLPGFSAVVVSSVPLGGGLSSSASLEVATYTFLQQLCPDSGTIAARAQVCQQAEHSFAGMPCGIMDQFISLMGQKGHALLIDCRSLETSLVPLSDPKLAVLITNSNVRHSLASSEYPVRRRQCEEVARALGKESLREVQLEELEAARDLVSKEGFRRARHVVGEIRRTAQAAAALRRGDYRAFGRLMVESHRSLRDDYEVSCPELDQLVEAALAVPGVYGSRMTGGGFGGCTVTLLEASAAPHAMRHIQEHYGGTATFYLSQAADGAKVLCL
recombinant mouse GALK1, sequence (Q9R0N0 whole entry): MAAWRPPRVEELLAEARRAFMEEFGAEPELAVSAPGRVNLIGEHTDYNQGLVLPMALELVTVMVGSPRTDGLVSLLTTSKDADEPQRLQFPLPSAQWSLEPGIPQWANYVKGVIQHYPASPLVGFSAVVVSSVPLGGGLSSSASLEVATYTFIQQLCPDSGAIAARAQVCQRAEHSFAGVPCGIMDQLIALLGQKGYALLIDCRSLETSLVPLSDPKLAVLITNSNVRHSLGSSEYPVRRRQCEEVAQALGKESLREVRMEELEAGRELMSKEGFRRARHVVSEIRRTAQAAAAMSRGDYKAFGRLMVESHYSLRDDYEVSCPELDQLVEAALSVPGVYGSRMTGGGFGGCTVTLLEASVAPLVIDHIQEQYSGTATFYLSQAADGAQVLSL

Row | SMILES | Sol. ([1]; aqueous kinetic solubility) | Metab. Stabil. (m) [2, 3] | IC50 (recombinant human GALK1; [4]) | Perm. (1 × 10^−6 cm/sec) (PAMPA permeability; PAMPA) | IC50 (recombinant mouse GALK1; [5]) | Sol. [1] | Metab. Stabil. (m) ([2]; microsomal half-life) | IC50 (recombinant human GALK1; [6]) | IC50 (recombinant human GALK1; [7]) | Perm. (1 × 10^−6 cm/sec) (PAMPA permeability) | IC50 (recombinant mouse GALK1; [8]) | IC50 (recombinant mouse GALK1; [9]) | Metab. Stabil. (m) ([2]; microsomal stability half-life) | hGALK (μM) (recombinant human GALK1; recombinant human GALK1, Kinase-Glo Plus ATP depletion, bracketed figure in the cell, e.g. (−1.2), is not defined in the text shown) | mGALK (μM) (recombinant mouse GALK1; recombinant mouse GALK1, Kinase-Glo Plus ATP depletion, bracketed figure in the cell, e.g. (−1.2), is not defined in the text shown)
1 | CN(C)CCNC(=O)C1CC(=O)C2=C(C1)NC(Nc1nc3ccccc3o1)=NC2c1ccccc1Cl (stereo not shown) [Compound 284, 2-(benzo[d]oxazol-2-ylamino)-4-(2-chlorophenyl)-N-(2-(dimethylamino)ethyl)-5-oxo-1,4,5,6,7,8-hexahydroquinazoline-7-carboxamide] | 61.78 µg/mL | >30 m | 12.2 µM | <9.8 1 × 10^−6 cm/sec | 12.2 µM |  |  |  |  |  |  |  |  |  | 
2 | CC1=C(C(=O)Nc2cc(C(=O)O)ccn2)[C@@H](c2ccccc2Cl)N=C(Nc2nc3ccc(F)cc3o2)N1 [Compound 20, (S)-2-(4-(2-chlorophenyl)-2-((6-fluorobenzo[d]oxazol-2-yl)amino)-6-methyl-1,4-dihydropyrimidine-5-carboxamido)isonicotinic acid] |  |  |  |  |  | 17.3 µg/mL | >30 m | 3.06 µM | 3.06 µM | <1 1 × 10^−6 cm/sec | 13.7 µM | 13.7 µM |  |  | 
3 | COC(=O)c1cccc(CNC(=O)C2=C(C)NC(Nc3nc4ccccc4o3)=NC2c2ccccc2Cl)c1 (stereo not shown) [Compound 224, methyl 3-((2-(benzo[d]oxazol-2-ylamino)-4-(2-chlorophenyl)-6-methyl-1,4-dihydropyrimidine-5-carboxamido)methyl)benzoate] | <1 µg/mL |  |  | 615.7 1 × 10^−6 cm/sec |  |  |  | 4.85 µM | 4.85 µM |  | 7.69 µM | 7.69 µM | 3.416 m |  | 
4 | CC1=C(C(=O)NCc2cnn(C)c2)[C@@H](c2ccc(C)cc2Cl)N=C(Nc2nc3cccc(N)c3o2)N1 [Compound 116, (S)-2-((7-aminobenzo[d]oxazol-2-yl)amino)-4-(2-chloro-4-methylphenyl)-6-methyl-N-((1-methyl-1H-pyrazol-4-yl)methyl)-1,4-dihydropyrimidine-5-carboxamide] |  |  |  |  |  | 21.9 µg/mL | 7.868 m |  | 12.2 µM | 326.9 1 × 10^−6 cm/sec |  | 30.6 µM |  |  | 
5 | CC1=C(C(=O)Nc2cc(C(=O)O)ccn2)C(c2ccccc2Cl)N=C(Nc2nc3cccc([N+](=O)[O-])c3o2)N1 (stereo not shown) [Compound 23, 2-(4-(2-chlorophenyl)-6-methyl-2-((7-nitrobenzo[d]oxazol-2-yl)amino)-1,4-dihydropyrimidine-5-carboxamido)isonicotinic acid] |  |  |  |  |  | 7.3 µg/mL | >30 m | 19.3 µM | 19.3 µM | 31.0 1 × 10^−6 cm/sec | 38.5 µM | 38.5 µM |  |  | 
6 | CC1=C(C(=O)NCc2cnn(C)c2)C(c2ccc(C)cc2Cl)N=C(Nc2nc3ccc(F)c(C(=O)O)c3o2)N1 (stereo not shown) [Compound 128, 2-((4-(2-chloro-4-methylphenyl)-6-methyl-5-(((1-methyl-1H-pyrazol-4-yl)methyl)carbamoyl)-1,4-dihydropyrimidin-2-yl)amino)-6-fluorobenzo[d]oxazole-7-carboxylic acid] | 26.3 µg/mL |  |  | <1 1 × 10^−6 cm/sec |  |  |  |  | 17.2 µM |  |  | 21.7 µM | >30 m |  | 
7 | CC1=C(C(=O)Nc2nncs2)C2(Cc3ccccc32)N=C(Nc2nc3ccccc3o2)N1 (stereo not shown) [Compound 259, 2′-(benzo[d]oxazol-2-ylamino)-6′-methyl-N-(1,3,4-thiadiazol-2-yl)-1′H-spiro[bicyclo[4.2.0]octane-7,4′-pyrimidine]-1,3,5-triene-5′-carboxamide] | 50.9 µg/mL | >30 m |  | 190.9 1 × 10^−6 cm/sec |  |  |  |  |  |  |  |  |  | in- active | in- active
8 | CC1=C(C(=O)Nc2nnc(-c3cccnc3)s2)C(c2ccccc2Cl)N=C(Nc2nc3ccccc3o2)N1 (stereo not shown) [Compound 180, 2-(benzo[d]oxazol-2-ylamino)-4-(2-chlorophenyl)-6-methyl-N-(5-(pyridin-3-yl)-1,3,4-thiadiazol-2-yl)-1,4-dihydropyrimidine-5-carboxamide] | <1 µg/mL |  |  | <3.7 1 × 10^−6 cm/sec |  |  |  | 3.06 µM | 3.06 µM |  | 9.68 µM | 9.68 µM | >30 m |  | 
9 | CC1=C(C(=O)Nc2nncs2)C(c2ccncc2Br)N=C(Nc2nc3ccccc3o2)N1 (stereo not shown) [Compound 255, 2-(benzo[d]oxazol-2-ylamino)-4-(3-bromopyridin-4-yl)-6-methyl-N-(1,3,4-thiadiazol-2-yl)-1,4-dihydropyrimidine-5-carboxamide] | 6.5 µg/mL | >30 m | 3.43 µM | 208.7 1 × 10^−6 cm/sec | 19.3 µM |  |  |  |  |  |  |  |  |  | 
10 | CC1=C(C(=O)NCc2cccnc2)C(c2ccccc2Cl)N=C(Nc2nc3ccccc3o2)N1 (stereo not shown) [Compound 221, 2-(benzo[d]oxazol-2-ylamino)-4-(2-chlorophenyl)-6-methyl-N-(pyridin-3-ylmethyl)-1,4-dihydropyrimidine-5-carboxamide] | <1 µg/mL |  |  | 1248.8 1 × 10^−6 cm/sec |  |  |  | 6.85 µM | 6.85 µM |  |  | 19.3 µM | 1.582 m |  | 
11 | CC1=C(C(=O)Nc2cc(-c3nn[nH]n3)ccn2)C(c2ccccc2Cl)N=C(Nc2nc3ccc(F)cc3o2)N1 (stereo not shown) [Compound 41, N-(4-(2H-tetrazol-5-yl)pyridin-2-yl)-4-(2-chlorophenyl)-2-((6-fluorobenzo[d]oxazol-2-yl)amino)-6-methyl-1,4-dihydropyrimidine-5-carboxamide] |  |  |  |  |  | 29.9 µg/mL | >30 m | 0.77 µM | 0.77 µM | <1 1 × 10^−6 cm/sec | 7.69 µM | 7.69 µM |  |  | 
12 | CC1=C(C(=O)Nc2cc(C(=O)O)ccn2)[C@H](c2ccccc2Cl)N=C(Nc2nc3ccccc3o2)N1 [Compound 208, (R)-2-(2-(benzo[d]oxazol-2-ylamino)-4-(2-chlorophenyl)-6-methyl-1,4-dihydropyrimidine-5-carboxamido)isonicotinic acid] | >74 µg/mL |  |  | <1 1 × 10^−6 cm/sec |  |  |  | 0.54 µM | 0.54 µM |  | 3.43 µM | 3.43 µM | >30 m |  | 
13 | COc1ccc([C@H]2N=C(Nc3nc4cccc(N)c4o3)NC(C)=C2C(=O)Nc2cc(C(=O)O)ccn2)c(Cl)c1 [Compound 86, (S)-2-(2-((7-aminobenzo[d]oxazol-2-yl)amino)-4-(2-chloro-4-methoxyphenyl)-6-methyl-1,4-dihydropyrimidine-5-carboxamido)isonicotinic acid] |  |  |  |  |  | >81 µg/mL | >30 m | 5.44 µM | 5.44 µM | <1 1 × 10^−6 cm/sec | 34.3 µM | 34.3 µM |  |  | 
14 | CC1=C(C(=O)Nc2cc(C(=O)O)ccn2)C(c2ccccc2Cl)N=C(Nc2nc3ccccc3o2)N1C(=O)c1ccccc1 (stereo not shown) [Compound 275, 2-(2-(benzo[d]oxazol-2-ylamino)-1-benzoyl-4-(2-chlorophenyl)-6-methyl-1,4-dihydropyrimidine-5-carboxamido)isonicotinic acid] | 73.9 µg/mL | >30 m | 3.43 µM | <1 1 × 10^−6 cm/sec | 7.69 µM |  |  |  |  |  |  |  |  |  | 
